Assays:
[1] = molecular target: T1, Ephrin type-A receptor 1 (Homo sapiens) (UniProt P21709); experiment: Inhibition of human EPHA1 at 18.6 nM by HotSpot assay relative to control
T1 sequence (whole entry): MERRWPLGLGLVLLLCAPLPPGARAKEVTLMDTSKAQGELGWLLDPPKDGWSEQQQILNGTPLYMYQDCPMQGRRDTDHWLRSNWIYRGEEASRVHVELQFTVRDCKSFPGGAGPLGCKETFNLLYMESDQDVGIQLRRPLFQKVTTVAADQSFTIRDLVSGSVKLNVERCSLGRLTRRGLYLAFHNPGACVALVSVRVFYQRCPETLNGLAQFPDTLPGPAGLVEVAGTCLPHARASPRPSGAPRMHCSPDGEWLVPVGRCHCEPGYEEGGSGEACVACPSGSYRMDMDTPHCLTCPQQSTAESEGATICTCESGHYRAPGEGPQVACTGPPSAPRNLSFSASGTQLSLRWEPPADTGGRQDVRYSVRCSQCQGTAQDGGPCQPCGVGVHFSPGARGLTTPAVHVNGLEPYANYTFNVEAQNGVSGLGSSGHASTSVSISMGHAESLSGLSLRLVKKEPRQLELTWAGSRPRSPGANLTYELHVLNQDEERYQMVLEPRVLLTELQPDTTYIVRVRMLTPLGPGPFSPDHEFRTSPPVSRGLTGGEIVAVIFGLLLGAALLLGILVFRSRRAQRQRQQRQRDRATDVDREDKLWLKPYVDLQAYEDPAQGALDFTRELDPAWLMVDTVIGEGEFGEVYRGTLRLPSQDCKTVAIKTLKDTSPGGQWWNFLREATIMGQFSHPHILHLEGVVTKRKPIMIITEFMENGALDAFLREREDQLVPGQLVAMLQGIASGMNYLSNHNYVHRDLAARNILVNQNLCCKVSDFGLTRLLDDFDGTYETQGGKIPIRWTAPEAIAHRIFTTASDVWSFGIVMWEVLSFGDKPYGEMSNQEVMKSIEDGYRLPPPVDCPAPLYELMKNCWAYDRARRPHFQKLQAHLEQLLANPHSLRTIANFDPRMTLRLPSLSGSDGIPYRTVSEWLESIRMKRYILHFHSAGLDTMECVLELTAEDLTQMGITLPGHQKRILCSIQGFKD

[2] = molecular target: Cyclin-dependent kinase 1/cyclin B1 (Homo sapiens) (UniProt P06493+P14635); experiment: Inhibition of human CDK1/cyclin B at 1.82 nM by HotSpot assay relative to control; assay type: protein-complex assay
[3] = molecular target: Cyclin-dependent kinase 7/ cyclin H (Homo sapiens) (UniProt P51946+P50613); experiment: Inhibition of human CDK7/cyclin H at 1.82 nM by HotSpot assay relative to control; assay type: protein-complex assay
[4] = molecular target: Death-associated protein kinase 1 (Homo sapiens) (UniProt P53355); experiment: Inhibition of human DAPK1 at 1.82 nM by HotSpot assay relative to control
[5] = molecular target: T2, Ephrin type-B receptor 3 (Homo sapiens) (UniProt P54753); experiment: Inhibition of human EPHB3 at 1.82 nM by HotSpot assay relative to control
T2 sequence (whole entry): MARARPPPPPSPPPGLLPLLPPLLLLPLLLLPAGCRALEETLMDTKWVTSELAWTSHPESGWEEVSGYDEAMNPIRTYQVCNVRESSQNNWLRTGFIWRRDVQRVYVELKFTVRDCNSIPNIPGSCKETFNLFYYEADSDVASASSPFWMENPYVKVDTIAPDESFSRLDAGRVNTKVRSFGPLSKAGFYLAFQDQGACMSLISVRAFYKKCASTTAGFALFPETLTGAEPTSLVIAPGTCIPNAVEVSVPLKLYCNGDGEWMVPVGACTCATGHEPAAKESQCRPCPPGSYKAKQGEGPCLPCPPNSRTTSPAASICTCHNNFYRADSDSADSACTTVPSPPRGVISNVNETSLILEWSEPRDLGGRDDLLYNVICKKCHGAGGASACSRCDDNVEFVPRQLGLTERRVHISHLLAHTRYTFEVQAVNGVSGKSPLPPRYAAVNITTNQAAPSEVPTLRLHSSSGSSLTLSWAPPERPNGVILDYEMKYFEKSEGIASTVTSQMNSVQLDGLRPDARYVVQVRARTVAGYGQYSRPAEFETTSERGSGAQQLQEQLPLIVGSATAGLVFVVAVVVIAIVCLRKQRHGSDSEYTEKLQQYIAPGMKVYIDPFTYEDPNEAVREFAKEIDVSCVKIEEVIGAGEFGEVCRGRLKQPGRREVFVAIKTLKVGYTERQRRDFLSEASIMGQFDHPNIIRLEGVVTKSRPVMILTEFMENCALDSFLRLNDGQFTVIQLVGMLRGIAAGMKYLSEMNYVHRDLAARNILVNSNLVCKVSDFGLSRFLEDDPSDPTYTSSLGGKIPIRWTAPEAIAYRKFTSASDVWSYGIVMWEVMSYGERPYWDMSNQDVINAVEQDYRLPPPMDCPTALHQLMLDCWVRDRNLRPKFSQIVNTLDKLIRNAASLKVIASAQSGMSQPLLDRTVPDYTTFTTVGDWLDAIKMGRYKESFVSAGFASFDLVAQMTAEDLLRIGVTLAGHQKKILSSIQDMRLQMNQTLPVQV

[6] = molecular target: Tyrosine-protein kinase Fgr (Homo sapiens) (UniProt P09769); experiment: Inhibition of human FGR at 1.82 nM by HotSpot assay relative to control
[7] = molecular target: Homeodomain-interacting protein kinase 3 (Homo sapiens) (UniProt Q9H422); experiment: Inhibition of human HIPK3 at 1.82 nM by HotSpot assay relative to control
[8] = molecular target: Ribosomal protein S6 kinase alpha-5 (Homo sapiens) (UniProt O75582); experiment: Inhibition of human RPS6KA5 at 1.82 nM by HotSpot assay relative to control
[9] = molecular target: Serine/threonine-protein kinase 24 (Homo sapiens) (UniProt Q9Y6E0); experiment: Inhibition of human STK24 at 1.82 nM by HotSpot assay relative to control
Serine/threonine-protein kinase 24 (Homo sapiens), sequence (Q9Y6E0 whole entry, looked up): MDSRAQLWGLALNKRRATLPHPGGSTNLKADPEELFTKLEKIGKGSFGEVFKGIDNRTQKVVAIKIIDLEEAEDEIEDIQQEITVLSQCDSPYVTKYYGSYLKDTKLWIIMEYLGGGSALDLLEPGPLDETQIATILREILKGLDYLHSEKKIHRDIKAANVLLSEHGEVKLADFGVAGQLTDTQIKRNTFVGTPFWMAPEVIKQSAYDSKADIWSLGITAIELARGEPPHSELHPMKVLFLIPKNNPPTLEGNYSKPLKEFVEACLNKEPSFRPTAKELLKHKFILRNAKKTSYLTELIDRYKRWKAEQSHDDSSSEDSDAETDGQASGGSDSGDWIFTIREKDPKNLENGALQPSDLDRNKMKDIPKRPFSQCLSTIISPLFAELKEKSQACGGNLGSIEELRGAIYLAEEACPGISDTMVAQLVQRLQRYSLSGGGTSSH

Ribosomal protein S6 kinase alpha-5 (Homo sapiens), sequence (O75582 whole entry, looked up): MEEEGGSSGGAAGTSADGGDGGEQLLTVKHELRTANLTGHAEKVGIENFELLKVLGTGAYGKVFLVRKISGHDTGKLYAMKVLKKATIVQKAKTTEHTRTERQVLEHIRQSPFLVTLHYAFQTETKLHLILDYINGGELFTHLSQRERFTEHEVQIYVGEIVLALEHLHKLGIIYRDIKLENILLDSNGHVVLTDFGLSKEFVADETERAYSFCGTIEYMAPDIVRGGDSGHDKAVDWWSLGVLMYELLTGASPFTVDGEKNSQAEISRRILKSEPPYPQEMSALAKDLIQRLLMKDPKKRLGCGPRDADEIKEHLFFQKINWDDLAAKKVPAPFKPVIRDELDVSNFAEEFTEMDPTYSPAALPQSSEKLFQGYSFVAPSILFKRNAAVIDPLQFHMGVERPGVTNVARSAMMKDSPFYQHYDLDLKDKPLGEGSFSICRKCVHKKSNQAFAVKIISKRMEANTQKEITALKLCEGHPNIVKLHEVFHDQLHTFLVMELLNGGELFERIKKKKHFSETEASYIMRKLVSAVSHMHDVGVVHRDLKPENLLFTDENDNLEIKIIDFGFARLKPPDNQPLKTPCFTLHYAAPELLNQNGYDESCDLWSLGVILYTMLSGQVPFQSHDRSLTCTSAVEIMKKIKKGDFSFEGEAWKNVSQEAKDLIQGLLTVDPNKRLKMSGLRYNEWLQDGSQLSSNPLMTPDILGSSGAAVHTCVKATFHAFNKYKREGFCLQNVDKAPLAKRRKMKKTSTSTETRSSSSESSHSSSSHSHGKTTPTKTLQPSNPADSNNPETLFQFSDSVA
Homeodomain-interacting protein kinase 3 (Homo sapiens), sequence (Q9H422 whole entry, looked up): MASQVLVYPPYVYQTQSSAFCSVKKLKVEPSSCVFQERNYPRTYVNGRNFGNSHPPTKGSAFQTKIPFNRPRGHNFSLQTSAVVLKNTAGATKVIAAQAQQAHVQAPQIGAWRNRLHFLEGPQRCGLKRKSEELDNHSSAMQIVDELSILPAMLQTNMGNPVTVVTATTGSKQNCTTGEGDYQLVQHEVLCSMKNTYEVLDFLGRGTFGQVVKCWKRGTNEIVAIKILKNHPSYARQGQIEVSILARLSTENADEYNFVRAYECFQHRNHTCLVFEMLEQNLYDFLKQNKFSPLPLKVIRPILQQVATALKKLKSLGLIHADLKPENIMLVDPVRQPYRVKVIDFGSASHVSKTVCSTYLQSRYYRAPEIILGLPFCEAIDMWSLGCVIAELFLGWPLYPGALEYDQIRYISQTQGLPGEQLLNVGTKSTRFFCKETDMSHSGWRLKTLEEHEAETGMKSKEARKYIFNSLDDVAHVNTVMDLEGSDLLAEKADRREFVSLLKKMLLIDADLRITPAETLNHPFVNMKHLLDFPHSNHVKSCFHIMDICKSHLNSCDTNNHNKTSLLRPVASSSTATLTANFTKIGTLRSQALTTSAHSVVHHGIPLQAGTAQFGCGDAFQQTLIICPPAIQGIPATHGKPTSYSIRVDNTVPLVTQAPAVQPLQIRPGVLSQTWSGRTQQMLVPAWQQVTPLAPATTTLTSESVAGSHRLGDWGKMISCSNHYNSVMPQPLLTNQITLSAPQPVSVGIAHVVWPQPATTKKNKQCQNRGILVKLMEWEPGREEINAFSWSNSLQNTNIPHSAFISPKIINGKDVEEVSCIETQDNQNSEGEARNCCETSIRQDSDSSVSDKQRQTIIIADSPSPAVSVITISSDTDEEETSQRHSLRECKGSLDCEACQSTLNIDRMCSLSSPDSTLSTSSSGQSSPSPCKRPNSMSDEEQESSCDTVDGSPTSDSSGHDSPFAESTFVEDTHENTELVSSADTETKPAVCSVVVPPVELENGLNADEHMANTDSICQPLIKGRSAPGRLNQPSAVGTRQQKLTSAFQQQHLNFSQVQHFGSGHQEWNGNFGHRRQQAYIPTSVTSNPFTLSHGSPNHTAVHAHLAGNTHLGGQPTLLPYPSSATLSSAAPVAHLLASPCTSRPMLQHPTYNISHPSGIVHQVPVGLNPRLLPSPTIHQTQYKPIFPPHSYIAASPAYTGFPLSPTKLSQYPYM
Tyrosine-protein kinase Fgr (Homo sapiens), sequence (P09769 2-529 limits assumed): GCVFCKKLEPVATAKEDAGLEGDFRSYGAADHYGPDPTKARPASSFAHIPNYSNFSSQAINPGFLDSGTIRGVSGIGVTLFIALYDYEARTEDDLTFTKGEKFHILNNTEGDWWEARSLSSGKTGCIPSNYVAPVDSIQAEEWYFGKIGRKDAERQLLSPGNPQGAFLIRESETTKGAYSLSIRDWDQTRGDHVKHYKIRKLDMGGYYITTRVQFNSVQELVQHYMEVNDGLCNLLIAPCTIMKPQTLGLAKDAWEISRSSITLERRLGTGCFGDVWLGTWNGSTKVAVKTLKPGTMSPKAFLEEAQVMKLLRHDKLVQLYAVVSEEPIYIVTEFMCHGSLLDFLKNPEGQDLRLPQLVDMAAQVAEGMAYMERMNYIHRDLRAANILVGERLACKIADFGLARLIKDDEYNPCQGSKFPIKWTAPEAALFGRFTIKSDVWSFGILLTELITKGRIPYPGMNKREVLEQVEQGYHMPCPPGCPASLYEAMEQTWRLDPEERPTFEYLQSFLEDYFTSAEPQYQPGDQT
Death-associated protein kinase 1 (Homo sapiens), sequence (P53355 whole entry, looked up): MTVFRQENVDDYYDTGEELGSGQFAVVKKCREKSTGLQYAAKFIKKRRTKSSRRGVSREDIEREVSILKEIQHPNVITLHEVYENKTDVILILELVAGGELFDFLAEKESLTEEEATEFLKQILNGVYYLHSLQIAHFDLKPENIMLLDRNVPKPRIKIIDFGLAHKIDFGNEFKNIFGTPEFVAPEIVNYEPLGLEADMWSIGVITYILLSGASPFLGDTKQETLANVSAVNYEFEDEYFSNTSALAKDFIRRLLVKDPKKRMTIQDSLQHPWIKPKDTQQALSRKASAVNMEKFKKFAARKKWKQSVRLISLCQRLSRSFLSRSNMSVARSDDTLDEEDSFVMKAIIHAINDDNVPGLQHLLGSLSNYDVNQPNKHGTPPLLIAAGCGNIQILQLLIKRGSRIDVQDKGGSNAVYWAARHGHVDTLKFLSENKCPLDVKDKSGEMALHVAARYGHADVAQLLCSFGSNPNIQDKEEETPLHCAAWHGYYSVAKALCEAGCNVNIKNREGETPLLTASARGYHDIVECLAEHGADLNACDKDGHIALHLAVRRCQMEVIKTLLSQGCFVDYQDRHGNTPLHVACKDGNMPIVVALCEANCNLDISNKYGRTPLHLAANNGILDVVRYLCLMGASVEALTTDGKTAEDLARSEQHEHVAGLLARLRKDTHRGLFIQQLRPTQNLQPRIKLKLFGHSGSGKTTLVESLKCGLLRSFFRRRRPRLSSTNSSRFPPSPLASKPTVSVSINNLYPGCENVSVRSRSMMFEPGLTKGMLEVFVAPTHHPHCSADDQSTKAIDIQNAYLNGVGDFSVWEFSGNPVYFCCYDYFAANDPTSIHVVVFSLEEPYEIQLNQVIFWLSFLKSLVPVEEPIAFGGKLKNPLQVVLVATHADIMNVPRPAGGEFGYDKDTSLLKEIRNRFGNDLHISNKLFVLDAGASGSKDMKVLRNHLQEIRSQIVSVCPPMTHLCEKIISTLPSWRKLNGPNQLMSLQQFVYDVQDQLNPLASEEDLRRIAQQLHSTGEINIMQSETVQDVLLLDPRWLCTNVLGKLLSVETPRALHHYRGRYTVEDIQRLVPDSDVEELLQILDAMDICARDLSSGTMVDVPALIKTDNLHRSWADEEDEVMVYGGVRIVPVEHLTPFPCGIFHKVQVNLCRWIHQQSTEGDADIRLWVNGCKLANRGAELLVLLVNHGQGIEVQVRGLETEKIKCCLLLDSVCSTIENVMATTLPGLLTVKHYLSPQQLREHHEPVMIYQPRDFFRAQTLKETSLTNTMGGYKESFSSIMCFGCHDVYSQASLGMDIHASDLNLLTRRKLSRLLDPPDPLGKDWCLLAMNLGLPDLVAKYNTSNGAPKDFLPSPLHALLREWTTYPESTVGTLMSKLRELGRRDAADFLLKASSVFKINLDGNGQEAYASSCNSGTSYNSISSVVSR

Row | SMILES | inhibition [1] [%] | inhibition [2] [%] | inhibition [3] [%] | inhibition [4] [%] | inhibition [5] [%] | inhibition [6] [%] | inhibition [7] [%] | inhibition [8] [%] | inhibition [9] [%]
1 | C[C@]1(O)C[C@@H](c2nc(-c3ccc4ccc(-c5ccccc5)nc4c3)c3c(N)nccn32)C1 | -4.97 | – | – | – | – | – | – | – | –
2 | C[C@@]1(C(=O)Nc2ccc(F)nc2)CCCN1c1nc(Nc2cc(C3CC3)n[nH]2)c2cccn2n1 | – | 0.77 | -3.28 | 3.56 | 2.89 | -3.39 | -3.9 | -3.72 | 2.42

Source: ChEMBL document CHEMBL5653615 (J Biol Chem, 2013)
